Experimental data taken from US9272047B2, “Use of biological surfactant as anti-inflammatory agent and tissue preservative solution” (Shaperon Inc., priority 2007, dated 2016).

Columns and labels:
NF-κB = experiment: Inhibition of E. coli LPS-stimulated NF-κB activation (CD25 expression) in 3FP CHO cells; format: cell-based, Chinese hamster; settings: live 7AAD(−) LPS-stimulated 3FP cells
Description: In order to evaluate the inhibition efficacy for the activation of E. coli LPS-stimulated NF-κB in a CHO cell, % expression of CD 25 in the CHO cell was evaluated as the following method, and FACS analysis after staining with 7-AAD was carried out to evaluate the cytotoxicity. Bile salts were classified into 3 groups based on their solubility in different solvents, as follows:
The CHO cells expressing CD25 under the regulation of a nuclear factor (NF-κB) promoter, shown FIG. 2A, were used for this experiment. Toll-like receptor 2 (TLR2) and CD14 gene-transformed CHO cells (hereinafter referred to as “3FP cells”) were also used.
The next day, the cultured cells were treated with bile acid derivatives and LPS, and were incubated in a CO2 incubator for 15 hr at 37° C.
After stimulating the above incubated cells for 15 hr, the culture solution was centrifuged (1200 rpm, 5 min, 4° C.) to remove the culture supernatant. The precipitate was washed twice with 200 μl of FACS buffer (1×PBS containing 1% BSA and 1 mM EDTA). 20 μl of blocking solution (PBS containing 1:10 of normal mouse serum and 1:3 of anti-human CD14/CD32 (BD, 2.4G2) was added to each well and reacted on an ice for 30 min. A mixture solution of anti-human CD25-PE (1:16) and anti-human CD14-FITC (1:32) was added to the well and then reacted on the ice for 30 min. The reaction mixture was washed twice with 200 μl of FACS buffer, and then 200 μl of 7-AAD (1:20) was added to the reaction mixture. After the reaction mixture was reacted on the ice for 10 min, CD25 expression efficacy and cytotoxicity were analyzed by using a flow cytometer.
In order to analyze living cells, 7-AAD(−) cells were selected and an activation of nuclear transcription factor was confirmed by the increase of CD25 expression.

dendritic cells [1] = experiment: Inhibition of E. coli LPS-induced activation of dendritic cells (CD40, CD80, CD86, I-Ab expression); format: cell-based, mouse; settings: 100 ng/ml E. coli LPS; CD11c(+)/7AAD(−) dendritic cells
Description: In order to assay the effect of sodium glycocholate on the activation procedure of antigen presenting cells, which is induced by E. coli LPS, cells were separated from the bone marrow of recombination activating gene 2 (Rag2) deficient mouse. The separated cells were plated at 2×10^5 cells/well in a 96-well plate and then treated with 1.5 ng/ml of granulocyt-macrophage colony-stimulating factor (GM-CSF) and 0.75 ng/ml of interleukin-4 followed by the differentiation of the cells into dentritic cells through 6-day incubation.
The dendritic cells were well mixed with sodium glycocholate and LPS. The mixtures were stimulated for 18 hours at 37° C., and stained with anti-CD40-FITC, anti-CD80-FITC, anti-I-Ab-PE, anti-CD86-PE, 7AAD and anti-CD11c-APC, then the cells were assayed via a flow cytometer. Each group was treated and assayed at least twice, and the results were statistically analyzed through t-test. The results were p<0.05 compared with the experimental groups treated by only LPS.
As shown FIGS. 9A-9B to 11A-11B, in order to assay only living dedritic cells, CD11c(+)/7AAD(−) cells were selected and then the expressions of dendritic cell costimulatory molecules and I-Ab were assayed.

macrophages = experiment: Inhibition of LPS-induced nitric oxide generation, macrophages (Griess); format: cell-based, mouse; settings: macrophages stimulated by LPS, 18 hours
Description: (§1) Then, the resulting dendritic cell mixtures were plated, by […] each, in a 96-well plate. Griss reagents were added to each well, and the 96-well plate was covered with foils and kept reacting for 15 min at room temperature. Absorbance at 540 nm was measured using an ELISA reader. Macrophages separated from abdomen were also treated with sodium glycocholate, sodium taurochenodeoxycholate and sodium taurodeoxycholate, respectively, and then stimulated with LPS for 18 hours. Thereafter, the same experiments as the dentritic cells were performed to the macrophages.

dendritic cells [2] = experiment: Inhibition of LPS-induced nitric oxide generation, dendritic cells (Griess); format: cell-based, mouse; settings: dendritic cells stimulated by LPS, 18 hours
Description: as §1

sodium deoxycholate
inhibition effect for LPS-stimulated CD25 expression (NF-κB activation) (NF-κB): showed an inhibition effect

C[C@H](CCC(=O)NCC(=O)O)[C@H]1CC[C@H]2[C@@H]3[C@H](O)C[C@@H]4C[C@H](O)CC[C@]4(C)[C@H]3C[C@H](O)[C@]12C [glycocholic acid hydrate]
inhibition effect for LPS-stimulated CD25 expression (NF-κB activation) (NF-κB): showed inhibition effects

C[C@H](CCC(=O)O)[C@H]1CC[C@H]2[C@@H]3C(=O)C[C@@H]4CC(=O)CC[C@]4(C)[C@H]3CC(=O)[C@]12C [dehydrocholic acid]
inhibition effect for LPS-stimulated CD25 expression (NF-κB activation) (NF-κB): showed inhibition effects

C[C@H](CCC(=O)NCCS(=O)(=O)O)[C@H]1CC[C@H]2[C@@H]3[C@H](O)C[C@@H]4C[C@H](O)CC[C@]4(C)[C@H]3C[C@H](O)[C@]12C [sodium taurocholate hydrate]
inhibition effect for LPS-stimulated CD25 expression (NF-κB activation) (NF-κB): showed an inhibition effect

C[C@H](CCC(=O)NCC(=O)[O-])[C@H]1CC[C@H]2[C@@H]3[C@H](O)C[C@@H]4C[C@H](O)CC[C@]4(C)[C@H]3CC[C@]12C.[Na+] [sodium glycochenodeoxycholate]
inhibition effect for LPS-stimulated CD25 expression (NF-κB activation) (NF-κB): showed an inhibition effect

C[C@H](CCC(=O)O)[C@H]1CC[C@H]2[C@@H]3[C@H](O)C[C@@H]4C[C@H](O)CC[C@]4(C)[C@H]3CC[C@]12C [chenodeoxycholic acid]
inhibition effect for LPS-stimulated CD25 expression (NF-κB activation) (NF-κB): showed inhibition effects

C[C@H](CCC(=O)NCCS(=O)(=O)O)[C@H]1CC[C@H]2C3[C@H](O)C[C@@H]4C[C@H](O)CC[C@]4(C)[C@H]3CC[C@]12C (stereo partly drawn) [sodium taurochenodeoxycholate]
inhibition effect for LPS-stimulated CD25 expression (NF-κB activation) (NF-κB): showed an inhibition effect | increased expression of CD40, CD80, CD86 and I-Ab (dendritic cells [1]): inhibited depending on the concentration | generation of NO (macrophages): inhibited | generation of NO (dendritic cells [2]): inhibited

C[C@H](CCC(=O)O)[C@H]1CC[C@H]2[C@@H]3[C@H](O)C[C@@H]4C[C@H](O)CC[C@]4(C)[C@H]3C[C@H](O)[C@]12C [cholic acid]
inhibition effect for LPS-stimulated CD25 expression (NF-κB activation) (NF-κB): showed inhibition effects

C[C@H](CCC(=O)NCCS(=O)(=O)[O-])[C@H]1CC[C@H]2[C@@H]3CC[C@@H]4C[C@H](O)CC[C@]4(C)[C@H]3C[C@H](O)[C@]12C.[Na+] [sodium taurodeoxycholate hydrate]
inhibition effect for LPS-stimulated CD25 expression (NF-κB activation) (NF-κB): showed an inhibition effect | increased expression of CD40, CD80, CD86 and I-Ab (dendritic cells [1]): inhibited depending on the concentration | generation of NO (macrophages): inhibited | generation of NO (dendritic cells [2]): inhibited
